Where “and” joins values, the source holds several entries; their conditions need not be identical. Equal entries are not always repeated.
Columns and labels:
S. aureus [1] = experiment: Primary stage MIC measurement of antibiotic alone (OD 600 nm growth curves, 18 h); type: cell-based, Staphylococcus aureus
Text: The following day, the turbidity of the actively-growing broth culture was adjusted with Calcium-adjusted Mueller Hinton broth II (MHBII) to be equivalent to that of a 0.5 McFarland standard (1×10^8 CFU/ml). The broth culture was maintained under ambient conditions prior to use.
The method used in this stage was based on the classic Minimum Inhibitory Concentration (MIC) measurements, as described by the Clinical and Laboratory Standards Institute (CLSI) document M07-A9: “Method for Dilution Antimicrobial Susceptibility Test for Bacteria that Grow Aerobically”. While classic MIC measurements require visual inspection of plates for bacterial growth after 18 hours, growth was monitored in the present study according to optical density (OD) at 600 nm, using an ELISA reader (MultiSkan™ FC ELISA reader, Thermo Fisher Scientific, Massachusetts, USA), thereby obtaining bacterial growth curves for tested antibiotic solutions.
Columns 1 and 3-12: 100 μl of MHBII alone was added to each well.
[…]: 200 μl of a solution of antibiotic in MHBII at the highest concentration to be tested was added to each well.
A series of 2-fold dilutions was performed, wherein 100 μl of solution of antibiotic was withdrawn from each well of column 2, transferred to the corresponding well of column 3, and mixed.
The dilution was then repeated by transfer from column 3 to column 4, and so on, until column 11, when the 100 μl of solution of antibiotic withdrawn from each well of column 11 was discarded.
The 5×10^6 CFU/ml stock suspension which had been prepared in advance was transferred into a reservoir and 10 μl of the stock suspension were added into each well of columns 2-11 using a multichannel pipette to obtain a final 5×10^5 CFU/ml suspension.
The plate was then incubated at 37° C. with shaking in the ELISA reader and the optical density at 600 nm was read every 20 minutes for a total of 18 hours.
The average OD reading obtained for each antibiotic concentration was calculated and plotted against time to obtain a growth curve.
The MIC was determined as the first antibiotic concentration at which […] by the end of the 18-hour period.

S. aureus [2] = experiment: Tertiary stage: antimicrobial activity (ET50/MIC) of extract of degradation products of antibiotic-impregnated ORC pads, single or combination; type: cell-based, Staphylococcus aureus; settings: for MIC times higher than that of the primary stage MIC: antibiotic impregnated onto ORC pad; for Fold reduction in MIC concentration: primary MIC (antibiotic alone) versus antibiotic-impregnated ORC (tertiary) MIC
Protocol: Solutions comprising different concentrations of antibiotics to be tested were prepared in methanol.
Blank ORC pads of dimensions 1×1.5 inch, weighing between 65-75 mg (70 mg on average), in duplicate, were immersed in the antibiotic solutions and then dried using a rotary evaporator to provide extract of degradation products of antibiotic-impregnated ORC pads.
15 ml test tubes containing 3 ml of sterile PBS were prepared, and the antibiotic-impregnated ORC pads were immersed in the tubes and incubated for 3-5 hours at ambient temperature on a roller mixer (Stuart, Cat#SRT9D).
Each of the above extracts was filtered out using a sterile 0.8/0.2 μm syringe filter into a clean 15 ml tube. These extraction fluids are referred to herein as “extract of degradation products of antibiotic-impregnated ORC”.
Briefly, ORC pads weighing on average 70 mg each were impregnated with the selected antibiotic. Extracts of degradation products of antibiotic-impregnated ORC were prepared by immersion and incubation in 3 ml of sterile PBS for 3 hours at ambient temperature. The ORC degeneration products were then removed, and any remaining ORC particles were filtered out using a […] syringe filter. This extraction fluid was then diluted 10-fold into Muller Hinton growth medium containing bacteria. Bacterial growth was monitored every 20 min for a total of 18 hours according to optical density (OD) at 600 nm, using an ELISA reader.
Since the study included many possible combinations of two antibiotics, each with their own different concentration range, a matrix of possible antibiotic concentrations was designed, and degradation products of ORC were prepared accordingly (see Table 10). Since all the possible combinations could not be fitted into one 96 well plate, a series of MIC experiments were carried out.

CO[C@H]1/C=C/O[C@@]2(C)Oc3c(C)c(O)c4c(O)c(c(/C=N/N5CCN(C)CC5)c(O)c4c3C2=O)NC(=O)/C(C)=C\C=C\[C@H](C)[C@H](O)[C@@H](C)[C@@H](O)[C@@H](C)[C@H](OC(C)=O)[C@@H]1C [Rifampin, rifampin]
MIC as single antibiotics in the absence of ORC (first stage MIC results) (S. aureus [1]): 0.015 µg/mL | Change of antimicrobial activity when impregnated onto the ORC pad versus first stage MIC (S. aureus [2]): impaired | MIC times higher than that of the primary stage MIC (S. aureus [2]): 50 times | MIC times higher than that of the primary stage MIC (S. aureus [2]; listed as rifampin): about 50 times | ET50 (S. aureus [2]; impregnated ORC extract, minocycline 0.00 ng/ml, rifampin 73.29 ng/ml): 406.8 min | ET50 (S. aureus [2]; impregnated ORC extract, minocycline 0.00 ng/ml, rifampin 146.58 ng/ml): 442.3 min | ET50 (S. aureus [2]; impregnated ORC extract, minocycline 0.00 ng/ml, rifampin 293.16 ng/ml): 450.4 min | ET50 (S. aureus [2]; impregnated ORC extract, minocycline 0.00 ng/ml, rifampin 366.45 ng/ml): 418.1 min | Fold reduction in MIC concentration (S. aureus [2]): 0.019 | ET50 (S. aureus [2]; rifampin-impregnated ORC extract, impregnation fluid 50 μg/ml, 0.015705 % on ORC, 366.45 ng/ml in MIC): 643 min | ET50 (S. aureus [2]; rifampin-impregnated ORC extract, impregnation fluid 100 μg/ml, 0.03141 % on ORC, 732.9 ng/ml in MIC): 1396 min | ET50 (S. aureus [2]; rifampin-impregnated ORC extract, impregnation fluid 150 μg/ml, 0.047115 % on ORC, 1099.35 ng/ml in MIC): >2000 min | ET50 (S. aureus [2]; rifampin-impregnated ORC extract, impregnation fluid 200 μg/ml, 0.06282 % on ORC, 1465.8 ng/ml in MIC): >2000 min

CN(C)c1ccc(O)c2c1C[C@H]1C[C@H]3[C@H](N(C)C)C(O)=C(C(N)=O)C(=O)[C@@]3(O)C(O)=C1C2=O [Minocycline, minocycline]
MIC as single antibiotics in the absence of ORC (first stage MIC results) (S. aureus [1]): 0.25 µg/mL | MIC fold lower in the presence of degradation products of ORC than in their absence (S. aureus [2]): at least 5.8 fold | Fold reduction of the MIC for minocycline with at least one more antibiotic impregnated on ORC, versus minocycline alone (S. aureus [2]; combination with rifampin or clindamycin, with ORC degradation products): 200 fold | ET50 (S. aureus [2]; impregnated ORC extract, minocycline 1.26 ng/ml, clindamycin 0.00 ng/ml): 637.6 min | ET50 (S. aureus [2]; impregnated ORC extract, minocycline 1.26 ng/ml, rifampin 0.00 ng/ml): 585.4 min | ET50 (S. aureus [2]; impregnated ORC extract, minocycline 2.52 ng/ml, clindamycin 0.00 ng/ml): 1072 min | ET50 (S. aureus [2]; impregnated ORC extract, minocycline 2.52 ng/ml, rifampin 0.00 ng/ml): 799.9 min | ET50 (S. aureus [2]; impregnated ORC extract, minocycline 5.04 ng/ml, clindamycin 0.00 ng/ml): >2000 min | ET50 (S. aureus [2]; impregnated ORC extract, minocycline 5.04 ng/ml, rifampin 0.00 ng/ml): >2000 min | ET50 (S. aureus [2]; impregnated ORC extract, minocycline 6.30 ng/ml, clindamycin 0.00 ng/ml): >2000 min | ET50 (S. aureus [2]; impregnated ORC extract, minocycline 6.30 ng/ml, rifampin 0.00 ng/ml): >2000 min | ET50 (S. aureus [2]; minocycline-impregnated ORC extract, impregnation fluid 5 μg/ml, 0.00027 % on ORC, 6.30 ng/ml in MIC): 1145 min | ET50 (S. aureus [2]; minocycline-impregnated ORC extract, impregnation fluid 10 μg/ml, 0.00054 % on ORC, 12.60 ng/ml in MIC): 2000 min | ET50 (S. aureus [2]; minocycline-impregnated ORC extract, impregnation fluid 20 μg/ml, 0.00108 % on ORC, 25.20 ng/ml in MIC): >2000 min | ET50 (S. aureus [2]; minocycline-impregnated ORC extract, impregnation fluid 40 μg/ml, 0.00216 % on ORC, 50.40 ng/ml in MIC): >2000 min | Fold reduction in MIC concentration (S. aureus [2]): 20 and 19.85

Source: patent US20190184069A1, “ANTIMICROBIAL COMPOSITIONS COMPRISING MINOCYCLINE AND DEGRADATION PRODUCTS OF OXIDIZED CELLULOSE” (Omrix Biopharmaceuticals Ltd., priority 2017, published 2019)
